The values below come from ChEMBL document CHEMBL1201862, “PubChem BioAssay data set” (2004).

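Assay format: 96-well plates, 48-hour exposure. GI50: concentration for 50% inhibition of growth.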 Calls of active or inactive are those of the source. No stated cut-off is given here; in the data, active = GI50 up to about 1.1 µM and inactive = higher.

Common to all, as to assay: NCI tumour cell line growth inhibition, 48 h
In test [1] the test system is RPMI-8226.
The test system of test [2] is EKVX.
For test [3], the system named is SN12C.
Test [4] deals with HCT-116.
The test system of test [5] is BT-549.
Test [6] relates to SF-268.
In test [7] the test system is IGROV-1.
In test [8] the test system is OVCAR-4.
Test [9] concerns LOX IMVI.
The subject of test [10] is HL-60.
The subject of test [11] is CAKI-1.
Test [12] deals with UO-31.
Test [13] relates to RXF 393.
The subject of test [14] is NCI-H226.
For test [15], the system named is HCC 2998.
Test [16] has as its system ACHN.
Test [17] relates to T47D.
The subject of test [18] is OVCAR-3.
Test [19] has as its system SK-OV-3.
Test [20] deals with Malme-3M.

With `CC(=O)/C(=C\NC(=S)Nc1ccc(S(N)(=O)=O)cc1)C(=O)Nc1ccccc1C`, the GI50 in test [1] was 30.3 µM (inactive); in test [2], 66.5 µM (inactive); in [3] it was 71 µM (inactive); in [4] it was 40.5 µM (inactive); in test [5], 33.9 µM (inactive); in test [6], 99.8 µM (inactive). Further, the GI50 was 55.3 µM (inactive) in test [7]; 36.9 µM (inactive) in test [8]; 20 µM (inactive) in test [9]; 16.1 µM (inactive) in [10]; 37.8 µM (inactive) in test [11]; 32.4 µM (inactive) in [12]. Besides, the GI50 in test [13] is 37.1 µM (inactive); in test [14], 60.3 µM (inactive); in test [15], 54.8 µM (inactive); in [16] it was 52.5 µM (inactive); in test [17], 28.7 µM (inactive); in [18] it was 64.7 µM (inactive). Also, in test [19], the GI50 is 34.2 µM (inactive).

As to `CC1(CCC2C=CCC2)CCCNC1=S` (configuration not stated), the GI50 in test [1], in test [2], in [3], in test [4], in test [5] and in test [6] was > 10 µM (inactive) each time. Besides, the GI50 in test [7], in [9], in test [10], in test [12], in test [13] and in test [14] was > 10 µM (inactive) throughout. The GI50 in test [15], in test [16], in [17], in [20], in test [18] and in [19] was > 10 µM (inactive) throughout.

As for `CC(C)C1OC2(C)OC(=N)C1(C#N)C(C#N)(C#N)C2C` (configuration not stated), the GI50 was 18.7 µM (inactive) in test [2]; 13.9 µM (inactive) in test [3]; 27.2 µM (inactive) in test [4]; 51.6 µM (inactive) in test [5]; 20.1 µM (inactive) in test [6]; > 10 µM (inactive) in [7]. Besides, the GI50 in [9] is 19 µM (inactive); in [10] it was 15.9 µM (inactive); in test [11] it was 10.9 µM (inactive); in test [12], 45.7 µM (inactive); in test [13] it was 36.2 µM (inactive); in test [14], > 100 µM (inactive). Besides, the GI50 in test [15] was 13.7 µM (inactive); in test [16], 36 µM (inactive); in test [17], 15 µM (inactive); in test [20] it was 19.6 µM (inactive); in [18], 17.7 µM (inactive); in test [19], > 100 µM (inactive).

As to `O=C(NCCc1ccccc1)[C@H]1CCCC[C@@H]1CCO`, the GI50 in [1], in [2], in test [3], in test [4], in test [5] and in test [6] was > 100 µM (inactive) each time. Moreover, the GI50 in [7], in [8], in [9], in test [10], in test [11] and in test [12] was > 100 µM (inactive) in each case. In addition, the GI50 in [13], in [14], in test [15], in test [16], in test [17] and in test [18] was > 100 µM (inactive) in each case. In addition, in test [19], the GI50 was > 100 µM (inactive).

On to `COc1ccc(C2C3=C(N=C4SC(C(C)=O)=C(C)N42)c2ccccc2CC3)cc1` (configuration not stated), for which the GI50 in test [1] is 4.91 µM (inactive); in test [3] it was > 100 µM (inactive); in test [4], 15 µM (inactive); in test [5], 81.8 µM (inactive); in [6], > 100 µM (inactive); in test [7] it was 10.1 µM (inactive). Besides, the GI50 was > 100 µM (inactive) in [8]; 63.8 µM (inactive) in test [9]; 10.1 µM (inactive) in test [10]; 91.6 µM (inactive) in test [12]; 23.7 µM (inactive) in test [13]; 18.7 µM (inactive) in test [14]. The GI50 in [15] is 42.4 µM (inactive); in [16] it was > 100 µM (inactive); in test [17] it was 31.8 µM (inactive); in test [18] it was > 100 µM (inactive); in test [19], > 100 µM (inactive).

For the compound `CCOC(=O)c1nc2ccc(C(F)(F)F)cc2nc1Oc1ccc(C(=O)OC)cc1`, the GI50 was > 100 µM (inactive) in test [1]; > 100 µM (inactive) in test [2]; > 100 µM (inactive) in test [4]; 39.1 µM (inactive) in [5]; 76.4 µM (inactive) in test [6]; 59.4 µM (inactive) in test [7]. Also, the GI50 in [8] was 98.4 µM (inactive); in [9], > 100 µM (inactive); in test [10], > 100 µM (inactive); in test [11] it was > 100 µM (inactive); in test [12], > 100 µM (inactive); in test [13], 64.6 µM (inactive). The GI50 in test [14] is 45.5 µM (inactive); in test [15] it was > 100 µM (inactive); in [16], > 100 µM (inactive); in test [17] it was > 100 µM (inactive); in test [19] it was > 100 µM (inactive).

For `COC(=O)c1ccccc1C1CN=NC12Cc1c(C)c3c(c(C)c1C2=O)CCC3` (configuration not stated), the GI50 in test [2] was > 100 µM (inactive); in [3] it was > 100 µM (inactive); in test [4], 37.6 µM (inactive); in [5], > 100 µM (inactive); in [6], > 100 µM (inactive); in test [7], > 100 µM (inactive). Moreover, the GI50 in test [8], in test [9], in [10], in [11], in test [12] and in test [13] was > 100 µM (inactive) each time. In addition, the GI50 in [14], in test [15], in test [16], in test [17], in test [20] and in test [18] was > 100 µM (inactive) each time. Besides, the GI50 in test [19] is > 100 µM (inactive).

For the compound `N#CC(Nc1ccccc1)c1ccc(C(C#N)Nc2ccccc2)cc1` (configuration not stated), the GI50 was > 100 µM (inactive) in test [2]; 46.8 µM (inactive) in test [3]; 16.7 µM (inactive) in test [4]; 38.6 µM (inactive) in [5]; > 100 µM (inactive) in test [6]; 34.6 µM (inactive) in test [7]. Besides, the GI50 was > 100 µM (inactive) in [8]; 1.17 µM (inactive) in [9]; 5.79 µM (inactive) in [10]; 61.4 µM (inactive) in test [11]; 21.1 µM (inactive) in test [12]; > 100 µM (inactive) in test [13]. Besides, the GI50 in test [14] is > 100 µM (inactive); in test [15] it was 30.3 µM (inactive); in test [16] it was 22.3 µM (inactive); in test [17], 24.8 µM (inactive); in [20], > 100 µM (inactive); in test [18], 35.9 µM (inactive). Further, in test [19], the GI50 is > 100 µM (inactive).

Regarding `S=c1[nH]nc(Cn2c3ccc(Br)cc3c3nc4ccccc4nc32)n1C1CCCCC1`, the GI50 in test [1] is 17.7 µM (inactive); in test [2], 35 µM (inactive); in [3] it was 25 µM (inactive); in [4] it was 12.1 µM (inactive); in [5], 52.2 µM (inactive); in [6], 51.6 µM (inactive). Moreover, the GI50 in [7] is 21.4 µM (inactive); in test [8], 13.7 µM (inactive); in [11], 34.2 µM (inactive); in test [12], 18.2 µM (inactive); in [13], 18.5 µM (inactive); in [14] it was 20.5 µM (inactive). Also, the GI50 is 16.1 µM (inactive) in [15]; 29.4 µM (inactive) in test [16]; 19.4 µM (inactive) in test [17]; 29.7 µM (inactive) in test [20]; 18.5 µM (inactive) in test [18]; 26.5 µM (inactive) in test [19].

As to `O=C(CNCc1ccccc1)Oc1c(Cl)c(Cl)c(Cl)c(Cl)c1Cl`, the GI50 in test [2] is 22.4 µM (inactive); in test [3], 31.2 µM (inactive); in test [4] it was > 100 µM (inactive); in test [5], 17.3 µM (inactive); in test [6] it was 37.5 µM (inactive); in test [7], 33.1 µM (inactive). Besides, the GI50 was 44.1 µM (inactive) in [8]; 29.6 µM (inactive) in test [9]; 23.8 µM (inactive) in [10]; 25.3 µM (inactive) in test [11]; 20.6 µM (inactive) in test [12]; 74.8 µM (inactive) in test [13]. Besides, the GI50 was 28.4 µM (inactive) in test [14]; 22.8 µM (inactive) in test [15]; 23.1 µM (inactive) in test [16]; 25.7 µM (inactive) in test [17]; 26 µM (inactive) in test [20]; 22.5 µM (inactive) in test [18]. In addition, the GI50 in test [19] was 47 µM (inactive).

Regarding `COc1cc(C2c3cc4c(cc3[C@@H](Nc3ccc(F)cc3)C3COC(=O)[C@H]23)OCO4)cc(OC)c1O` (some centres not stated), the GI50 in [1] was 1.1 µM (active); in [2] it was 3.76 µM (inactive); in test [3], 1.57 µM (inactive); in test [4], 2.77 µM (inactive); in test [5] it was 2.61 µM (inactive); in test [6], 3.17 µM (inactive). Further, the GI50 is 5.31 µM (inactive) in test [7]; 15.1 µM (inactive) in test [8]; 0.753 µM (active) in test [9]; 0.514 µM (active) in test [11]; 1.65 µM (inactive) in test [12]; 3.12 µM (inactive) in [13]. In addition, the GI50 is 0.897 µM (active) in [14]; 3.28 µM (inactive) in test [15]; 0.476 µM (active) in test [16]; 0.605 µM (active) in [17]; 2.48 µM (inactive) in test [20]; 5.04 µM (inactive) in [18]. The GI50 in test [19] was 3.45 µM (inactive).
